Data: PMC5218480 (PLoS ONE, 2017)

Test system: MV-4-11 cells
Assay: Gene expression microarray analysis (Affymetrix PrimeView) and GSEA
Type: cell-based, human
Parameters: RFU PODN (11730768_x_at) / Fold change /veh PODN (11730768_x_at) / RFU LINC00158 (11744669_a_at) / Fold change /veh LINC00158 (11744669_a_at) / RFU DUSP10 (11751237_a_at) / Fold change /veh DUSP10 (11751237_a_at) / RFU ID3 (11757404_x_at) / Fold change /veh ID3 (11757404_x_at) / RFU PLEKHG5 (11737974_s_at) / Fold change /veh PLEKHG5 (11737974_s_at) / RFU LRRC4B (11730491_at) / Fold change /veh LRRC4B (11730491_at) / RFU GIMAP4 (11747438_a_at) / Fold change /veh GIMAP4 (11747438_a_at) / RFU KRT8 (11758183_x_at) / Fold change /veh KRT8 (11758183_x_at) / RFU CNN1 (11734310_a_at) / Fold change /veh CNN1 (11734310_a_at) / RFU VPS37D (11726825_at) / Fold change /veh VPS37D (11726825_at) / RFU C10orf10 (11716522_x_at) / Fold change /veh C10orf10 (11716522_x_at) / RFU KIR2DL2 /// KIR2DL4 /// KIR2DL5A /// KIR2DL5B /// KIR2DS1 /// KIR2DS2 /// KIR2DS3 /// KIR2DS4 /// KIR3DL3 /// KIR3DL3 /// KIR3DS1 (11738374_at) / Fold change /veh KIR2DL2 /// KIR2DL4 /// KIR2DL5A /// KIR2DL5B /// KIR2DS1 /// KIR2DS2 /// KIR2DS3 /// KIR2DS4 /// KIR3DL3 /// KIR3DL3 /// KIR3DS1 (11738374_at) / RFU C1QL1 (11718748_at) / Fold change /veh C1QL1 (11718748_at) / RFU TMPRSS4 (11747572_a_at) / Fold change /veh TMPRSS4 (11747572_a_at) / RFU HAMP (11756126_x_at) / Fold change /veh HAMP (11756126_x_at) / RFU RNFT2 (11725882_a_at) / Fold change /veh RNFT2 (11725882_a_at) / RFU NR4A2 (11747474_a_at) / Fold change /veh NR4A2 (11747474_a_at) / RFU ABCC12 (11746883_a_at) / Fold change /veh ABCC12 (11746883_a_at) / RFU TMEM136 (11760407_x_at) / Fold change /veh TMEM136 (11760407_x_at) / RFU CLDN22 /// WWC2 (11732394_at) / Fold change /veh CLDN22 /// WWC2 (11732394_at) / RFU HLA-DPB1 (11760878_x_at) / Fold change /veh HLA-DPB1 (11760878_x_at) / RFU SPINT1 (11716480_a_at) / Fold change /veh SPINT1 (11716480_a_at) / RFU GAP43 (11754022_s_at) / Fold change /veh GAP43 (11754022_s_at) / RFU A4GNT (11735810_at) / Fold change /veh A4GNT (11735810_at) / RFU PRB3 (11715151_x_at) / Fold change /veh PRB3 (11715151_x_at) / RFU TUBB4B (11761932_at) / Fold change /veh TUBB4B (11761932_at) / RFU CAPN14 (11732068_a_at) / Fold change /veh CAPN14 (11732068_a_at) / RFU TMCC2 (11721928_a_at) / Fold change /veh TMCC2 (11721928_a_at) / RFU IRGQ (11745062_a_at) / Fold change /veh IRGQ (11745062_a_at) / RFU FAM174B (11720279_a_at) / Fold change /veh FAM174B (11720279_a_at) / RFU TMPRSS4 (11748680_a_at) / Fold change /veh TMPRSS4 (11748680_a_at) / RFU FAM212B (11763350_a_at) / Fold change /veh FAM212B (11763350_a_at) / RFU PLEKHG5 (11743358_a_at) / Fold change /veh PLEKHG5 (11743358_a_at) / RFU ZSCAN30 (11745921_a_at) / Fold change /veh ZSCAN30 (11745921_a_at) / RFU CMKLR1 (11741424_a_at) / Fold change /veh CMKLR1 (11741424_a_at) / RFU LOC101060620 /// MAPK8IP1 (11723275_at) / Fold change /veh LOC101060620 /// MAPK8IP1 (11723275_at) / RFU SPTSSB (11747773_x_at) / Fold change /veh SPTSSB (11747773_x_at) / RFU PRSS12 (11739890_at) / Fold change /veh PRSS12 (11739890_at) / RFU BIN1 (11741810_x_at) / Fold change /veh BIN1 (11741810_x_at) / RFU WNT11 (11732464_a_at) / Fold change /veh WNT11 (11732464_a_at) / RFU C10orf10 (11716521_a_at) / Fold change /veh C10orf10 (11716521_a_at) / RFU C5orf56 (11738089_at) / Fold change /veh C5orf56 (11738089_at) / RFU CYB561 (11721691_x_at) / Fold change /veh CYB561 (11721691_x_at) / RFU ANKRD19P (11752326_a_at) / Fold change /veh ANKRD19P (11752326_a_at) / RFU OR2T12 /// OR2T33 /// OR2T8 (11738714_s_at) / Fold change /veh OR2T12 /// OR2T33 /// OR2T8 (11738714_s_at) / RFU VCAN (11748164_a_at) / Fold change /veh VCAN (11748164_a_at) / RFU JSRP1 (11732532_at) / Fold change /veh JSRP1 (11732532_at) / RFU KRTAP10-11 (11738290_x_at) / Fold change /veh KRTAP10-11 (11738290_x_at) / RFU MYO3A (11730013_a_at) / Fold change /veh MYO3A (11730013_a_at) / RFU EBF3 (11725865_a_at) / Fold change /veh EBF3 (11725865_a_at) / RFU CAMK2N1 (11719241_x_at) / Fold change /veh CAMK2N1 (11719241_x_at) / RFU C5orf56 (11738088_a_at) / Fold change /veh C5orf56 (11738088_a_at) / RFU OLFML3 (11715873_a_at) / Fold change /veh OLFML3 (11715873_a_at) / RFU LOC100653217 /// NTM (11731650_a_at) / Fold change /veh LOC100653217 /// NTM (11731650_a_at) / RFU MAPK11 (11762145_a_at) / Fold change /veh MAPK11 (11762145_a_at) / RFU FIZ1 (11724087_x_at) / Fold change /veh FIZ1 (11724087_x_at) / RFU OASL (11726364_x_at) / Fold change /veh OASL (11726364_x_at) / RFU SOX15 (11748057_x_at) / Fold change /veh SOX15 (11748057_x_at) / RFU CD79A (11719716_a_at) / Fold change /veh CD79A (11719716_a_at) / RFU HIST1H1D (11736915_at) / Fold change /veh HIST1H1D (11736915_at) / RFU CASKIN2 (11723855_a_at) / Fold change /veh CASKIN2 (11723855_a_at) / RFU LOC730098 (11760151_x_at) / Fold change /veh LOC730098 (11760151_x_at) / RFU OR4N2 (11742367_at) / Fold change /veh OR4N2 (11742367_at) / RFU PRRT2 (11749266_a_at) / Fold change /veh PRRT2 (11749266_a_at) / RFU SNX32 (11753110_a_at) / Fold change /veh SNX32 (11753110_a_at) / RFU CDHR5 (11726645_a_at) / Fold change /veh CDHR5 (11726645_a_at) / RFU RCAN1 (11760418_a_at) / Fold change /veh RCAN1 (11760418_a_at) / RFU FAM167A (11723789_a_at) / Fold change /veh FAM167A (11723789_a_at) / RFU FAM26E (11764081_at) / Fold change /veh FAM26E (11764081_at) / RFU ISYNA1 (11749810_s_at) / Fold change /veh ISYNA1 (11749810_s_at) / RFU ACY1 (11761880_at) / Fold change /veh ACY1 (11761880_at) / RFU 11764098_at / Fold change /veh 11764098_at / RFU SAMD14 (11745864_x_at) / Fold change /veh SAMD14 (11745864_x_at) / RFU NPB (11741838_a_at) / Fold change /veh NPB (11741838_a_at) / RFU TMPRSS6 (11731388_a_at) / Fold change /veh TMPRSS6 (11731388_a_at) / RFU KRTAP10-2 (11738614_at) / Fold change /veh KRTAP10-2 (11738614_at) / RFU ARHGAP8 /// PRR5-ARHGAP8 (11727945_x_at) / Fold change /veh ARHGAP8 /// PRR5-ARHGAP8 (11727945_x_at) / RFU KRTAP5-7 /// NADSYN1 (11734609_at) / Fold change /veh KRTAP5-7 /// NADSYN1 (11734609_at) / RFU RASL12 (11751679_a_at) / Fold change /veh RASL12 (11751679_a_at) / RFU CDKN2B (11736163_a_at) / Fold change /veh CDKN2B (11736163_a_at) / RFU PRF1 (11729649_at) / Fold change /veh PRF1 (11729649_at) / RFU, ZNF638 /// ZNF638-IT1 / Fold change vs veh, ZNF638 /// ZNF638-IT1 / RFU, PANK3 / Fold change vs veh, PANK3 / RFU, SH3YL1 / Fold change vs veh, SH3YL1 / RFU, ZEB2 / Fold change vs veh, ZEB2 / RFU, NRIP1 / Fold change vs veh, NRIP1 / RFU, PTTG1IP / Fold change vs veh, PTTG1IP / RFU, CAPN2 / Fold change vs veh, CAPN2 / RFU, MED14 / Fold change vs veh, MED14 / RFU, SNORA58 / Fold change vs veh, SNORA58 / RFU, C1orf63 / Fold change vs veh, C1orf63 / RFU, LRRFIP1 / Fold change vs veh, LRRFIP1 / RFU, NDUFAF7 / Fold change vs veh, NDUFAF7 / RFU, SLC12A2 / Fold change vs veh, SLC12A2 / RFU, IBTK / Fold change vs veh, IBTK / RFU, ESF1 / Fold change vs veh, ESF1 / Fold change vs veh, TMEM50B / RFU, TAOK1 / Fold change vs veh, TAOK1 / RFU, ACBD3 / Fold change vs veh, ACBD3 / RFU, TMA16 / Fold change vs veh, TMA16 / RFU, RWDD3 / Fold change vs veh, RWDD3 / RFU, BCAT1 / Fold change vs veh, BCAT1 / RFU, EDEM3 / Fold change vs veh, EDEM3 / RFU, TMEM33 / Fold change vs veh, TMEM33 / RFU, WDR75 / Fold change vs veh, WDR75 / RFU, AHCTF1 / Fold change vs veh, AHCTF1 / RFU, TFRC / Fold change vs veh, TFRC / RFU, ZDHHC17 / Fold change vs veh, ZDHHC17 / RFU, NOM1 / Fold change vs veh, NOM1 / RFU, ARL8B / Fold change vs veh, ARL8B / RFU, ZBTB11 / Fold change vs veh, ZBTB11 / RFU, TAMM41 / Fold change vs veh, TAMM41 / RFU, KIAA1704 /// LOC100996395 / Fold change vs veh, KIAA1704 /// LOC100996395 / RFU, ING1 / Fold change vs veh, ING1 / RFU, TRMT61B / Fold change vs veh, TRMT61B / RFU, FUBP3 / Fold change vs veh, FUBP3 / RFU, TP53 / Fold change vs veh, TP53 / RFU, TNKS2 / Fold change vs veh, TNKS2 / RFU, ZFP14 / Fold change vs veh, ZFP14 / RFU, ACTR2 / Fold change vs veh, ACTR2 / RFU, PPP3R1 / Fold change vs veh, PPP3R1 / RFU, PIK3R1 / Fold change vs veh, PIK3R1 / RFU, HNRNPA1 / Fold change vs veh, HNRNPA1 / RFU, RNF170 / Fold change vs veh, RNF170 / RFU, ZNF28 / Fold change vs veh, ZNF28 / RFU, RNGTT / Fold change vs veh, RNGTT / RFU, OGT / Fold change vs veh, OGT / RFU, BRD1 / Fold change vs veh, BRD1 / RFU, MARS / Fold change vs veh, MARS / RFU, ZNF655 / Fold change vs veh, ZNF655 / RFU, FAHD1 / Fold change vs veh, FAHD1 / RFU, BDP1 / Fold change vs veh, BDP1 / RFU, LRRCC1 / Fold change vs veh, LRRCC1 / RFU, ARID1A / Fold change vs veh, ARID1A / RFU, ZNF146 / Fold change vs veh, ZNF146 / RFU, ZNF330 / Fold change vs veh, ZNF330 / RFU, GPN3 / Fold change vs veh, GPN3 / RFU, C9orf123 / Fold change vs veh, C9orf123 / RFU, N4BP2L2 / Fold change vs veh, N4BP2L2 / RFU, ARFIP1 / Fold change vs veh, ARFIP1 / RFU, FAM179B / Fold change vs veh, FAM179B / RFU, BCL10 / Fold change vs veh, BCL10 / RFU, UHRF1BP1L / Fold change vs veh, UHRF1BP1L / RFU, BET1 / Fold change vs veh, BET1 / RFU, CNOT2 / Fold change vs veh, CNOT2 / RFU, ZNF268 / Fold change vs veh, ZNF268 / Fold change vs veh, ZNF507 / RFU, DGCR2 / Fold change vs veh, DGCR2 / RFU, WDSUB1 / Fold change vs veh, WDSUB1 / Fold change vs veh, HSP90B1 /// MIR3652 / RFU, ADSS / Fold change vs veh, ADSS / RFU, GK / Fold change vs veh, GK / RFU, ZNF148 / Fold change vs veh, ZNF148 / RFU, TAF9 / Fold change vs veh, TAF9 / RFU, SLC1A5 / Fold change vs veh, SLC1A5 / RFU, SLMO2 / Fold change vs veh, SLMO2 / RFU, ABCC4 / Fold change vs veh, ABCC4 / RFU, LOC101060439 /// RAP1B / Fold change vs veh, LOC101060439 /// RAP1B / RFU, RFX7 / Fold change vs veh, RFX7 / RFU, GTPBP10 / Fold change vs veh, GTPBP10 / RFU, CNEP1R1 / Fold change vs veh, CNEP1R1 / RFU, BIVM-ERCC5 /// ERCC5 / Fold change vs veh, BIVM-ERCC5 /// ERCC5 / RFU, ILF3 / Fold change vs veh, ILF3 / RFU 11762660_at / Fold change /veh 11762660_at / RFU VCAN (11757783_s_at) / Fold change /veh VCAN (11757783_s_at) / RFU DDX43 (11728927_at) / Fold change /veh DDX43 (11728927_at) / RFU KRT8 (11758188_x_at) / Fold change /veh KRT8 (11758188_x_at) / RFU NKD1 (11759106_at) / Fold change /veh NKD1 (11759106_at) / RFU SRD5A1 (11742802_a_at) / Fold change /veh SRD5A1 (11742802_a_at) / RFU TPSAB1 /// TPSB2 (11721975_s_at) / Fold change /veh TPSAB1 /// TPSB2 (11721975_s_at) / RFU GSTM3 (11746129_a_at) / Fold change /veh GSTM3 (11746129_a_at) / RFU IL23R (11737362_x_at) / Fold change /veh IL23R (11737362_x_at) / RFU TMEM51 (11727254_a_at) / Fold change /veh TMEM51 (11727254_a_at) / RFU PIWIL2 (11732686_x_at) / Fold change /veh PIWIL2 (11732686_x_at) / RFU ORM1 (11744905_x_at) / Fold change /veh ORM1 (11744905_x_at) / RFU CCDC152 (11743942_at) / Fold change /veh CCDC152 (11743942_at) / RFU ECM1 (11717891_a_at) / Fold change /veh ECM1 (11717891_a_at) / RFU IL23R (11748794_a_at) / Fold change /veh IL23R (11748794_a_at) / RFU TNFAIP8L3 (11732012_x_at) / Fold change /veh TNFAIP8L3 (11732012_x_at) / RFU MBOAT4 (11741988_at) / Fold change /veh MBOAT4 (11741988_at) / RFU 11764193_at / Fold change /veh 11764193_at / RFU TMEM53 (11763286_at) / Fold change /veh TMEM53 (11763286_at) / RFU MAGEB2 (11727129_at) / Fold change /veh MAGEB2 (11727129_at) / RFU TMEM200A (11744735_a_at) / Fold change /veh TMEM200A (11744735_a_at) / RFU CCDC152 (11751479_a_at) / Fold change /veh CCDC152 (11751479_a_at) / RFU FAM211A (11726209_a_at) / Fold change /veh FAM211A (11726209_a_at) / RFU RGS16 (11746705_a_at) / Fold change /veh RGS16 (11746705_a_at) / RFU VCAN (11755009_s_at) / Fold change /veh VCAN (11755009_s_at) / RFU RHOB (11743442_s_at) / Fold change /veh RHOB (11743442_s_at) / RFU RGS16 (11720943_a_at) / Fold change /veh RGS16 (11720943_a_at) / RFU RGS16 (11720944_at) / Fold change /veh RGS16 (11720944_at) / RFU, VPS4B / Fold change vs veh, VPS4B / RFU, CREB1 / Fold change vs veh, CREB1 / RFU, DNAJC13 / Fold change vs veh, DNAJC13 / RFU, GNAQ / Fold change vs veh, GNAQ / RFU, CDK5R1 / Fold change vs veh, CDK5R1 / RFU, ZRANB3 / Fold change vs veh, ZRANB3 / RFU, CUL4A / Fold change vs veh, CUL4A / RFU, CCNY / Fold change vs veh, CCNY / RFU, UFL1 / Fold change vs veh, UFL1 / RFU, COG3 / Fold change vs veh, COG3 / RFU, DIAPH2 / Fold change vs veh, DIAPH2 / RFU, SKA2 / Fold change vs veh, SKA2 / RFU, AFF3 / Fold change vs veh, AFF3 / RFU, LMF1 / Fold change vs veh, LMF1 / RFU, IPO11 / Fold change vs veh, IPO11 / RFU, DFFB / Fold change vs veh, DFFB / RFU, FOXP1 / Fold change vs veh, FOXP1 / RFU, CARD8 / Fold change vs veh, CARD8 / RFU, STRN3 / Fold change vs veh, STRN3 / RFU, ADK / Fold change vs veh, ADK / RFU, RASSF2 / Fold change vs veh, RASSF2 / RFU, WIPF1 / Fold change vs veh, WIPF1 / RFU, LARP1B / Fold change vs veh, LARP1B / RFU, RASA1 / Fold change vs veh, RASA1 / RFU, RB1 / Fold change vs veh, RB1 / RFU, PPFIA1 / Fold change vs veh, PPFIA1 / RFU, MAT2A / Fold change vs veh, MAT2A / RFU, CCT5 / Fold change vs veh, CCT5 / RFU, WDR92 / Fold change vs veh, WDR92 / RFU, CUX1 / Fold change vs veh, CUX1 / RFU, TTC7A / Fold change vs veh, TTC7A / RFU, TMEM135 / Fold change vs veh, TMEM135 / RFU, DEPTOR / Fold change vs veh, DEPTOR / RFU, CPM / Fold change vs veh, CPM / RFU, DNAJB6 / Fold change vs veh, DNAJB6 / RFU, CACNA2D3 / Fold change vs veh, CACNA2D3 / RFU, DTX4 / Fold change vs veh, DTX4 / RFU, TFCP2 / Fold change vs veh, TFCP2 / RFU, GMCL1 /// GMCL1P1 / Fold change vs veh, GMCL1 /// GMCL1P1 / RFU, AEBP2 / Fold change vs veh, AEBP2 / RFU, SNHG1 /// SNORD22 /// SNORD25 /// SNORD26 /// SNORD27 /// SNORD28 /// SNORD29 /// SNORD31 / Fold change vs veh, SNHG1 /// SNORD22 /// SNORD25 /// SNORD26 /// SNORD27 /// SNORD28 /// SNORD29 /// SNORD31 / Fold change (Aza/veh), C12orf56 (ProbeSet 11735607_a_at) / Fold change (ACY-1035/veh), C12orf56 (ProbeSet 11735607_a_at) / Fold change (Aza/veh), FGFR1OP (ProbeSet 11751329_s_at) / Fold change (ACY-1035/veh), FGFR1OP (ProbeSet 11751329_s_at) / Fold change (Aza/veh), VPS36 (ProbeSet 11739960_a_at) / Fold change (ACY-1035/veh), VPS36 (ProbeSet 11739960_a_at) / RFU SYPL1 (11715823_x_at) / Fold change /veh SYPL1 (11715823_x_at) / RFU IGFBP7 (11715501_s_at) / Fold change /veh IGFBP7 (11715501_s_at) / RFU REEP3 (11722064_at) / Fold change /veh REEP3 (11722064_at) / RFU IGLL1 (11728026_x_at) / Fold change /veh IGLL1 (11728026_x_at): dose or concentration left out as unconfirmed
Settings: ProbeSet 11723141_at; LIST B

Nc1ccc(-c2cccs2)cc1NC(=O)c1ccc2c(c1)cc(C1CC1)n2CCN1CCOCC1 [ACY-1035]
RFU, ZBTB11: 113.11 RFU
